Laboratory results taken from patent US8952024B2, “Herbicidal pyrimidone derivatives” (E I du Pont de Nemours and Company, priority 2009, dated 2015).

How the values were obtained:
Format in all cases: in vivo
[1] = system: chickweed (Stellaria media); experiment: Test B postemergence plant response; conditions: for Chickweed plant response rating (0 to 100 scale): 62 g ai/ha, 0 is no effect, 13 to 15 days
Method in brief: (§1)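 Visual ratings from 0 (no effect) to 100 (complete control), made against controls 13–15 days after treatment, kept in a greenhouse. Compounds were applied postemergence to potted plants at the 1- to 4-leaf stage (2–18 cm).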

[2] = system: canarygrass (Phalaris minor); experiment: Test B postemergence plant response; conditions: for Canarygrass plant response rating (0 to 100 scale): 62 g ai/ha, 0 is no effect, 13 to 15 days
Method in brief: as §1

[3] = system: winter barley (Hordeum vulgare); experiment: Test B postemergence plant response; conditions: for Barley plant response rating (0 to 100 scale): 62 g ai/ha, 0 is no effect, 13 to 15 days
Method in brief: as §1

[4] = system: windgrass (Apera spica-venti); experiment: Test B postemergence plant response; conditions: for Windgrass plant response rating (0 to 100 scale): 62 g ai/ha, 0 is no effect, 13 to 15 days
Method in brief: as §1

[5] = system: wheat (Triticum aestivum); experiment: Test A pre-/postemergence plant response
Method in brief: (§2)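 Greenhouse trial, ~10 days. Soil (loam/sand) sprayed preemergence after seeding; emerged plants (1–2 leaf, 2–10 cm) sprayed postemergence in parallel. Response = visual injury vs untreated control, 0–100.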

[6] = system: large crabgrass (Digitaria sanguinalis); experiment: Test A pre-/postemergence plant response
Method in brief: as §2

[7] = system: morningglory (Ipomoea spp.); experiment: Test A pre-/postemergence plant response
Method in brief: as §2

[8] = system: velvetleaf (Abutilon theophrasti); experiment: Test A pre-/postemergence plant response
Method in brief: as §2

corn (Zea mays) = experiment: Test A pre-/postemergence plant response
Method in brief: as §2

[9] = system: pigweed (Amaranthus retroflexus); experiment: Test A pre-/postemergence plant response
Method in brief: as §2

[10] = system: giant foxtail (Setaria faberii); experiment: Test A pre-/postemergence plant response
Method in brief: as §2

[11] = system: barnyardgrass (Echinochloa crus-galli); experiment: Test A pre-/postemergence plant response
Method in brief: as §2

[12] = 31 g ai/ha, postemergence, scale 0 to 100, 0 is no effect, 100 is complete control
[13] = postemergence, 100 is complete control
[14] = Postemergence, 125 g ai/ha, visual rating after 13 to 15 days, scale 0 (no effect) to 100 (complete control)
[15] = Postemergence, 250 g ai/ha, scale 0 to 100 (0 no effect, 100 complete control)
[16] = Postemergence, 125 g ai/ha, visual injury, 0 to 100 scale (0 no effect, 100 complete control), approx. ten days
[17] = Postemergence, 500 g ai/ha, 0 to 100 scale, 0 = no effect, 100 = complete control, approx. ten days
[18] = Preemergence, 125 g ai/ha, 0 to 100 scale, 0 = no effect, 100 = complete control
[19] = Preemergence, 500 g ai/ha, visual injury, 0 to 100 scale (0 no effect, 100 complete control), approx. ten days
[20] = Postemergence, 125 g ai/ha, 0 to 100 scale where 0 is no effect and 100 is complete control

O=C1CCCC(O)=C1C(=O)c1cnc(-c2ccccc2Br)n(-c2ccccc2)c1=O [Compound 71]
10: Windgrass plant response rating (0 to 100 scale) [4, 13] | Plant response rating, Crabgrass, Large [6, 18] | Plant response rating, Foxtail, Giant [10, 19]
30: Crabgrass, Large plant response rating [6, 16]
80: Plant response rating, Crabgrass, Large [6, 17] | Morningglory plant response rating [7, 16]
45: Plant response rating, Windgrass [4, 14]
0: Plant response rating, Canarygrass [2, 12] | Plant response rating, Barley [3, 12] | Barley plant response rating (0 to 100 scale) [3, 13] | Plant response rating, Barley [3, 14] | Wheat plant response rating [5, 16] | Plant response rating, Wheat [5, 17] | Plant response rating, Wheat [5, 18] | Plant response rating, Wheat [5, 19] | Plant response rating, Morningglory [7, 18] | Plant response rating, Morningglory [7, 19] | Corn plant response rating (corn (Zea mays); [16]) | Plant response rating, Corn (corn (Zea mays); [18]) | Plant response rating, Corn (corn (Zea mays); [19]) | Plant response rating, Foxtail, Giant [10, 18] | Barnyardgrass plant response rating [11, 16] | Plant response rating, Barnyardgrass [11, 18] | Plant response rating, Barnyardgrass [11, 19]
5: Canarygrass plant response rating (0 to 100 scale) [2, 13] | Plant response rating, Canarygrass [2, 14] | Plant response rating, Barley [3, 15] | Plant response rating, Windgrass [4, 12]
98: Plant response rating, Chickweed [1, 15]
95: Plant response rating, Chickweed [1, 14]
90: Chickweed plant response rating (0 to 100 scale) [1, 13] | Plant response rating, Pigweed [9, 19]
70: Plant response rating, Velvetleaf [8, 19] | Pigweed plant response rating [9, 16]
50: Plant response rating, Crabgrass, Large [6, 19] | Plant response rating, Velvetleaf [8, 18]
100: Plant response rating, Morningglory [7, 17] | Velvetleaf plant response rating [8, 16] | Plant response rating, Velvetleaf [8, 17] | Plant response rating, Pigweed [9, 17]
60: Plant response rating, Windgrass [4, 15] | Plant response rating, Foxtail, Giant [10, 17] | Plant response rating, Barnyardgrass [11, 17]
20: Plant response rating, Canarygrass [2, 15] | Plant response rating, Corn (corn (Zea mays); [17]) | Foxtail, Giant plant response rating [10, 16]
75: Plant response rating, Chickweed [1, 12]

CCCc1ncc(C(=O)C2=C(O)CCCC2=O)c(=O)n1-c1ccccc1C [Compound 73]
95: Plant response rating, Chickweed [1, 14]
60: Plant response rating, Corn (corn (Zea mays); [17])
100: Plant response rating, Chickweed [1, 15] | Plant response rating, Crabgrass, Large [6, 19] | Plant response rating, Morningglory [7, 20] | Plant response rating, Morningglory [7, 17] | Plant response rating, Velvetleaf [8, 20] | Plant response rating, Velvetleaf [8, 17] | Plant response rating, Velvetleaf [8, 19] | Plant response rating, Pigweed [9, 20] | Plant response rating, Pigweed [9, 17] | Plant response rating, Pigweed [9, 18] | Plant response rating, Pigweed [9, 19]
10: Plant response rating, Barley [3, 15] | Plant response rating, Wheat [5, 20] | Plant response rating, Wheat [5, 18] | Plant response rating, Morningglory [7, 18]
40: Plant response rating, Canarygrass [2, 15]
0: Plant response rating, Canarygrass [2, 12] | Canarygrass plant response rating (0 to 100 scale) [2, 13] | Plant response rating, Barley [3, 12] | Barley plant response rating (0 to 100 scale) [3, 13] | Plant response rating, Barley [3, 14] | Plant response rating, Corn (corn (Zea mays); [18]) | Plant response rating, Corn (corn (Zea mays); [19]) | Plant response rating, Barnyardgrass [11, 18]
50: Plant response rating, Wheat [5, 17] | Plant response rating, Foxtail, Giant [10, 18]
70: Plant response rating, Windgrass [4, 12] | Plant response rating, Crabgrass, Large [6, 18] | Plant response rating, Foxtail, Giant [10, 19] | Plant response rating, Barnyardgrass [11, 20] | Plant response rating, Barnyardgrass [11, 19]
98: Plant response rating, Windgrass [4, 15]
5: Plant response rating, Canarygrass [2, 14]
90: Plant response rating, Windgrass [4, 14] | Plant response rating, Crabgrass, Large [6, 20] | Plant response rating, Crabgrass, Large [6, 17] | Plant response rating, Foxtail, Giant [10, 17] | Plant response rating, Barnyardgrass [11, 17]
30: Plant response rating, Wheat [5, 19] | Plant response rating, Corn (corn (Zea mays); [20])
80: Plant response rating, Chickweed [1, 12] | Chickweed plant response rating (0 to 100 scale) [1, 13] | Windgrass plant response rating (0 to 100 scale) [4, 13] | Plant response rating, Morningglory [7, 19] | Plant response rating, Velvetleaf [8, 18] | Plant response rating, Foxtail, Giant [10, 20]
